# Measurements: patent US20140256663A1, “Amphotericin Analogous Compounds and Pharmaceutical Compositions Containing Them” (CENTRO DE INVESTIGACION Y DE ESTUDIOS AVANZADOS DEL …, priority 2010, published 2014)
# Entries after “also recorded” stand apart in the source; their conditions may differ.
# Key:
# [1] = test system: Saccharomyces cerevisae FY833(SC) cells; assay: Viability of Saccharomyces cerevisae FY833 (SC) cells at various concentrations; format: cell-based; settings: FIG. 1, various concentrations; listed as amide 1
# Protocol: All derivatives were tested for antibiotic activity in yeast cultures of S. cerevisiae.
# [2] = test system: human renal cells 293Q (ATCC CLR-1573); assay: MTT cytotoxicity on human renal cells 293Q; settings: human renal cells 293Q, 24 h
# Protocol: For cytotoxicity studies human kidney cells (ATCC No. CRL-1573) were used. The cells were cultured with Minimum Essential Medium (MEM) (GIBCO BRL), supplemented with 10% fetal bovine serum (FBS) (GIBCO BRL), 2 mM 1-glutamine (GIBCO BRL), 1.5 gL Na2HCO3 (Sigma Chemical Co), 0.1 mM nonessential amino acids (Sigma Chemical Co), and 1 mM sodium pyruvate (In vitro, S.A.). The technique of bromide of 3(4,5-dimethylthiazol-2-yl)-2,5-diphenyl tetrazolium (MTT) (Sigma Chemical Co) was applied; a technique which is based on the conversion of dye to an insoluble precipitate called formazan. This test is used as an indicator of mitochondrial function in living cells that measures the metabolic capacity in cells and serves as an indicator of cytotoxicity. […] (Mosman […], Immunol Methods, 65: 55-63). The cytoxicity test consisted of planting 10,000 cells per well in 96-well plates (Corning Incorporated Costar) in MEM and incubate them (Nuaire us autoflow CO2 water-jacketed incubator) during 24 h at 37° C. and 5% CO2. […] After incubation, cells were treated and incubated anew for 24 h. After this time the medium was aspirated carefully and replaced with 200 μL of fresh medium, and 50 μL of MTT was added for a total volume of 250 μl. They were then incubated for 4 hours in the above conditions. After that time the medium with MTT was carefully removed and 200 μL of DMSO and 25 μL of Sorensen buffer (0.1 M glycine+0.1 M NaCl at pH 10.5) were added to each well. The plate was then mixed until the formazan crystals dissolved, and it was finally read in a plate reader (Microplate Limaning System Ultramark, Biorad) at a wavelength of 550 nm.
# For the tests, we used human renal ephythelial cells (293Q) (ATCC Catalog No. CRL-1573). The cells were cultured with Minimum Essential Medium (MEM) (GIBCO BRL) supplemented with 10% fetal bovine serum (FBS) (GIBCO BRL), 2 mM L-glutamine (GIBCO BRL), 1.5 g/L Na2HCO3 (Sigma Chemical Co), 0.1 mM nonessential amino acids (Sigma Chemical Co), and 1 mM sodium pyruvate (In vitro, S.A.). For cytoxicity tests, we applied the technique of bromide 3(4,5-dimethylthiazol-2-yl)-2,5-diphenyl tetrazolium (MTT) (Sigma Chemical Co), which is based on the conversion of the dye to an insoluble precipitate called formazan. This test is used as an indicator of mitochondrial function in living cells which measures the metabolic capacity in cells and serves as an indicator of cytotoxicity. (Wang, H. Z., Chang, C. H., Lin, C. P., Tsai, M. C). Using MTT viability assay to test the cytotoxicity of antibiotics and steroid to cultured porcine corneal endothelial cells. J. Ocul. Pharmacol. Ther. 1996; 12: 35-43). For the essay 10,000 cells were seeded per well in 96-well plates (Corning Incorporated Costar) in the medium already indicated and incubated for 24 h at 37° C. and 5% CO2. […] After incubation, cells were treated and incubated again for 24 h. The medium was carefully aspirated and replaced with 200 μl fresh medium, adding 50 μl MTT solution for a total volume of 250 μl. They were then incubated for 4 hours in the above conditions. The medium was carefully removed with MTT and 200 μl DMSO and 25 μl Sorense buffer (0.1 M glycine+0.1 M NaCl at pH 10.5) was added to each well. Then the plate was mixed until the formazan crystals dissolved; it was finally read in a reader plate (Microplate Limaning System Ultramark, Biorad) at a wavelength of 550 nm.
# [3] = Unit channel studies in chicken egg lecithin bilayers with cholesterol; settings: for Opening probability, channel type I / Opening probability, channel type II / Opening probability, channel type III / Opening probability, channel type IV / Opening probability, channel type V / Opening probability, channel type VI: 200 μM compound, 30 mol % cholesterol, 27° C.
# Protocol: The activity is determined by the presence of the different channels formed by polyenes in the lipid bilayer (Cotero, et al., supra; Venegas, et al., supra). […] These values were determined by the technique of unit channel delineated above.
# Unit channel studies were performed according to procedures described earlier (Cotero, et al., supra, Venegas, et al., supra). Required liposomal suspensions were prepared using lecithin with cholesterol or ergosterol. These suspensions were placed in an ultrasonic bath for 15 minutes to produce unilamellar vesicles. Subsequently, the suspension was placed in a 100 μl eppendorf and a lipid bilayer was formed on the tip of a micro-electrode. The unit channels of amphotericin and of the invented compounds were incorporated to this bilayer. The unit channel current of the various compounds was recorded with an electrometer, and then these records were analyzed by determining the activity of the compounds and the characteristics of the channels formed.
# The activity is determined by the presence of the various channels formed by polyenes in the lipid bilayer (Cotero, et al., supra, Venegas, et al., supra). […] This conductance is the effect of all the channels present and was determined by the unit channel technique earlier described.
# [4] = test system: Candida albicans ATCC 752; assay: Antifungal activity in vitro by flow cytometry, Candida albicans ATCC 752; format: cell-based; settings: ATCC752, 24 h at 37° C., read-out: CF50 Candida albicans ATCC 752
# Protocol: (§1) The antifungal activity of the polyene macrolide derivate of the present invention was determined by flow cytometry method earlier described (Pinto et al., J. Medical Microbiology, 2009; 58, 1454-1462; Pina-Vaz and Rodriguez, Methods Mol. Biol. 2010; 638:281-289). For the test two strains of Candida albicans (ATCC 10231 and 752) and Candida kruzei were used. A cellular suspension of 1×10^6 UFC/mL was used, which has sown in 96-well plates. […] As controls were used: untreated yeasts (control of living cells), yeasts exposed to UV radiation (arrest, inhibition of proliferation), and yeasts exposed at temperature of 100° C. (dead yeasts). Cells were collected by centrifugation at 10,000×g for 10 min, they were washed once in phosphate buffer. […] of propidium iodide 0.1 mg/mL were added to the cell suspension. It was incubated during 30 minutes at room temperature and protected from light. Finally, the samples were analyzed by flow cytometry (Becton-Dickinson Facsc Calibur, laser argon 480 nm). The intrinsic parameters and fluorescence in the FL2 channel (yellow/orange fluorescence) for FUN and channel FL3 (red fluorescence, filter 630 nm) for propidium iodide were acquired and registered on a logarithmic scale for a minimum of 7500 events per sample. For data analysis, the quadrants were adjusted in a plot of data lines of fluorescence intensity of samples. […] These quadrants were used to quantify the percentile of cells showing altered fluorescence compared to drug-free controls.
# [5] = test system: Candida albicans ATCC 10231; assay: Antifungal activity in vitro by flow cytometry, Candida albicans ATCC 10231; format: cell-based; settings: ATCC10231, 24 h at 37° C., read-out: CF50 Candida albicans ATCC 10231
# Protocol: as §1
# Candida kruzei = assay: Antifungal activity in vitro by flow cytometry, Candida kruzei; format: cell-based; settings: 24 h at 37° C., read-out: CF50 Candida kruzei
# Protocol: as §1
# human erythrocytes = assay: Hemolytic assay on human erythrocytes; format: cell-based; settings: 1 hour
# Protocol: The hemotoxicity of the polyene macrolide derivative of the present invention was determined by measuring the toxicity to human erythrocytes (values HE50) using a method established by Cybulska, et al. (Cybulska, B., Borowski, E. and Gary-Bobo, M. Relationship between ionophoric and hemolytic activities of perimycin A and vacidin A, two polyene macrolide antifungal antibiotics. Biochem Pharmacol. 1989; 38(11): 1755-1762). For determining the haematoxicity 2 mL blood were obtained and placed in a tube with EDTA. The number of erythrocytes was counted in a Neubauer chamber, and 1×10^7 cells/mL were placed in test tubes. The erythrocytes were resuspended in 450 μL of KCl 150 mM+Tris 3 mM buffer. The erythrocytes were treated with concentrations of 0.01, 0.1, 1, 10 y 100 μM and incubated in a water bath for 1 hour. They were then centrifuged at 1500 rpm for 15 seconds; 150 μL were taken from the supernatant and placed in 96-well plates; the optical density of each group was measured using a plate reader at a wavelength of 550 nm. We included one tube with the drug solvent (DMSO 1%) as internal control. We also included one tube only with erythrocytes and 500 μl of buffer KCl 150 mM+Tris 3 mM, which we consider as a negative control group and a tube with 500 μl of red cells and 35 mM NaCl (positive control).
Structure (SMILES),inhibitory capacity / potency on SC cells compared to AmB [1],DT50 CitE50 [2] [µM],"Opening probability, channel type I [3] [%]","Opening probability, channel type II [3] [%]","Opening probability, channel type III [3] [%]","Opening probability, channel type IV [3] [%]","Opening probability, channel type V [3] [%]","Opening probability, channel type VI [3]","activity of transmembranal channels in the cholesterol membrane ([3]; in words, compared to AmB)",IC50 [4] [µM],IC50 [5] [µM],IC50 (Candida kruzei) [µM],HE50 (Hemolysis 50) (human erythrocytes) [µM]
"CC1OC(O[C@H]2/C=C/C=C/C=C/C=C/C=C/C=C/C=C/C(C)[C@@H](O)C(C)C(C)OC(=O)C[C@H](O)C[C@H](O)CC[C@@H](O)[C@H](O)C[C@H](O)C[C@]3(O)CC(O)[C@@H](C(=O)NCc4ccccc4)C(C2)O3)C(O)C(N)C1O (stereo partly drawn) [A-1, N-benzylamide of AmB]",the most similar; also recorded: the highest power of the derivatives,100,2,1,<1,<1,<1,<1%,low activity of transmembranal channels,> 100,> 100,> 100,52
"CC1OC(O[C@H]2/C=C/C=C/C=C/C=C/C=C/C=C/C=C/C(C)[C@@H](O)C(C)C(C)OC(=O)C[C@H](O)C[C@H](O)CC[C@@H](O)[C@H](O)C[C@H](O)C[C@]3(O)CC(O)[C@@H](C(=O)NC4CCCCC4)C(C2)O3)C(O)C(N)C1O (stereo partly drawn) [A-2, N-cycloheximide of AmB]",–,120,5,<1,<1,<1,<1,<1%,–,> 100,> 50,> 100,45
"CC(NC(=O)[C@@H]1C(O)C[C@@]2(O)C[C@@H](O)C[C@@H](O)[C@H](O)CC[C@@H](O)C[C@@H](O)CC(=O)OC(C)C(C)[C@H](O)C(C)/C=C/C=C/C=C/C=C/C=C/C=C/C=C/[C@H](OC3OC(C)C(O)C(N)C3O)CC1O2)c1ccccc1 (stereo partly drawn) [A-4, N—(S)-α-phenylethylamide of AmB]",–,80,7,3,1,<1,<1,<1%,–,> 100,> 50,> 100,46
"COC(=O)C(Cc1c[nH]c2ccccc12)NC(=O)[C@@H]1C(O)C[C@@]2(O)C[C@@H](O)C[C@@H](O)[C@H](O)CC[C@@H](O)C[C@@H](O)CC(=O)OC(C)C(C)[C@H](O)C(C)/C=C/C=C/C=C/C=C/C=C/C=C/C=C/[C@H](OC3OC(C)C(O)C(N)C3O)CC1O2 (stereo partly drawn) [A-6, N-(L)-tryptophanamide of AmB]",–,120,23,2,<1,<1,<1,N.O.,–,> 100,> 50,> 100,58
"CC1OC(O[C@H]2/C=C/C=C/C=C/C=C/C=C/C=C/C=C/C(C)[C@@H](O)C(C)C(C)OC(=O)C[C@H](O)C[C@H](O)CC[C@@H](O)[C@H](O)C[C@H](O)C[C@]3(O)CC(O)[C@@H](C(=O)N[C@H](C)c4ccccc4)C(C2)O3)C(O)C(N)C1O (stereo partly drawn) [A-5, N—(R)-α-phenylethylamide of AmB]",–,100,10,2,<1,<1,<1,<1%,–,> 100,> 50,> 100,42
"CC1/C=C/C=C/C=C/C=C/C=C/C=C/C=C/[C@H](OC2O[C@H](O)[C@@H](O)[C@H](N)[C@@H]2O)C[C@@H]2O[C@](O)(C[C@@H](O)C[C@@H](O)[C@H](O)CC[C@@H](O)C[C@@H](O)CC(=O)O[C@@H](C)[C@H](C)[C@@H]1O)C[C@H](O)[C@H]2C(=O)NCCc1c[nH]cn1 (stereo partly drawn) [A-8, N-histaminamide of AmB]",–,–,–,–,–,–,–,–,–,> 100,> 50,> 100,–
